Assay results reported in patent US4382089A, “Antibacterial amide compounds, compositions thereof and methods of using them” (Warner-Lambert Company, priority 1982, dated 1983).

Legend:
Test in all cases: Antibacterial activity in vitro, Minimal Inhibitory Concentration
Assay type in all cases: cell-based
E. Coli Vogel = test system: E. Coli Vogel
Source text: (§1) The compounds of the invention are new chemical compounds that are used as pharmacological agents and especially as broad spectrum antibacterial agents. They are active in vitro against strains of both gram-positive and gram-negative bacteria. The activity of the compounds is illustrated by the results shown in the table for certain of the preferred compounds.

Pseudo. Aeru BRK = test system: Pseudo. Aeru BRK
Source text: as §1

Prot. Vulg. 1810 = test system: Prot. Vulg. 1810
Source text: as §1

Serr. Mar. IMM-16 = test system: Serr. Mar. IMM-16
Source text: as §1

E. Coli Brig = test system: E. Coli Brig
Source text: as §1

Staph Aureus UC-76 = test system: Staph Aureus UC-76
Source text: as §1

Klebs. Pneu. MGH-2 = test system: Klebs. Pneu. MGH-2
Source text: as §1

Pseudo. Aeru 28 = test system: Pseudo. Aeru 28
Source text: as §1

Entero C. IMM-11 = test system: Entero C. IMM-11
Source text: as §1

Pseudo. Aeru UI-18 = test system: Pseudo. Aeru UI-18
Source text: as §1

| Compound | Minimal Inhibitory Concentration (E. Coli Vogel) [µg/mL] | Minimal Inhibitory Concentration (Pseudo. Aeru BRK) [µg/mL] | Minimal Inhibitory Concentration (Prot. Vulg. 1810) [µg/mL] | Minimal Inhibitory Concentration (Serr. Mar. IMM-16) [µg/mL] | Minimal Inhibitory Concentration (E. Coli Brig) [µg/mL] | Minimal Inhibitory Concentration (Staph Aureus UC-76) [µg/mL] | Minimal Inhibitory Concentration (Klebs. Pneu. MGH-2) [µg/mL] | Minimal Inhibitory Concentration (Pseudo. Aeru 28) [µg/mL] | Minimal Inhibitory Concentration (Entero C. IMM-11) [µg/mL] | Minimal Inhibitory Concentration (Pseudo. Aeru UI-18) |
| --- | --- | --- | --- | --- | --- | --- | --- | --- | --- | --- |
| CC1(C)SC2C(NC(=O)C(NC(=O)c3c[nH]c4ccc(NC(=O)C5CCC(=O)N5)cc4c3=O)c3ccc(O)cc3)C(=O)N2C1C(=O)O (stereo not drawn) [N-[1,4-Dihydro-4-oxo-6[[(5-oxo-2-pyrrolidinyl)carbonyl]-amino]-3-quinolinylcarbonyl]amoxicillin] | 1.6 | 3.1 | 1.6 | 6.3 | 6.3 | 1.6 | 12.5 | 3.1 | 3.1 | 1.6 µg/mL |
| CC1(C)SC2C(NC(=O)C(NC(=O)c3c[nH]c4c(NC(=O)C5CCC(=O)N5)cccc4c3=O)c3ccc(O)cc3)C(=O)N2C1C(=O)O (stereo not drawn) [N-[1,4-Dihydro-4-oxo-8-[[(5-oxo-2-pyrrolidinyl)carbonyl]-amino]-3-quinolinylcarbonyl]amoxicillin] | 3.1 | 1.6 | 3.1 | 12.5 | 6.3 | 1.6 | 12.5 | 0.8 | 6.3 | 3.1 µg/mL |
| CC1(C)S[C@@H]2[C@H](NC(=O)[C@H](NC(=O)c3cc4cc(NC(=O)NCC(N)=O)ccc4[nH]c3=O)c3ccc(O)cc3)C(=O)N2[C@H]1C(=O)O [N-[3-[1,2-dihydro-2-oxo-6-(5-oxo-2-pyrrolidinyl)amino]-quinolinylcarbonyl]amoxicillin] |  | 1.6 |  |  |  | 1.6 |  | 1.6 | 3.1 |  |
| CC(=O)NC(C)C(=O)Nc1ccc2[nH]cc(C(=O)NC(C(=O)NC3C(=O)N4C3SC(C)(C)C4C(=O)O)c3ccc(O)cc3)c(=O)c2c1 (stereo not drawn) [N-[6-[[2-(Acetylamino)-1-oxopropyl]amino]-1,4-dihydro-4-oxo-3-quinolinylcarbonyl]amoxicillin] | 0.4 | 1.6 | 0.8 | 3.1 | 3.1 | 1.6 | 6.3 | 0.4 | 3.1 | 1.6 µg/mL |
| CC(=O)N1CCCC1C(=O)Nc1ccc2[nH]c(=O)c(C(=O)NC(C(=O)NC3C(=O)N4C3SC(C)(C)C4C(=O)O)c3ccc(O)cc3)cc2c1 (stereo not drawn) [N-[6-[[(1-Acetyl-2-pyrrolidinyl)carbonyl]amino]-1,2-dihydro-2-oxo-3-quinolinylcarbonyl]amoxicillin] | 0.2 | 1.6 | 0.8 | 12.5 | 3.1 | 0.8 | 25 | 1.6 | 3.1 | 1.6 µg/mL |
| CC(=O)N1CCCC1C(=O)Nc1ccc2[nH]cc(C(=O)NC(C(=O)NC3C(=O)N4C3SC(C)(C)C4C(=O)O)c3ccc(O)cc3)c(=O)c2c1 (stereo not drawn) [N-[6-[[(1-Acetyl-2-pyrrolidinyl)carbonyl]amino]-1,4-dihydro-4-oxo-3-quinolinylcarbonyl]amoxicillin] | 0.2 | 3.1 | 0.8 | 6.3 | 6.3 | 3.1 | 6.3 | 3.1 | 6.3 | 3.1 µg/mL |
| CC(=O)N1CC(O)CC1C(=O)Nc1ccc2[nH]c(=O)c(C(=O)NC(C(=O)NC3C(=O)N4C3SC(C)(C)C4C(=O)O)c3ccc(O)cc3)cc2c1 (stereo not drawn) [N-[6-[[(1-Acetyl-4-hydroxy-2-pyrrolidinyl)carbonyl]-amino]-1,2-dihydro-2-oxo-3-quinolinylcarbonyl]amoxicillin] | 6.3 | 3.1 | 3.1 | 25 | 12.5 | 0.8 | 25 | 1.6 | 6.3 | 1.6 µg/mL |
| CC(=O)NC(C)C(=O)Nc1ccc2[nH]c(=O)c(C(=O)NC(C(=O)NC3C(=O)N4C3SC(C)(C)C4C(=O)O)c3ccc(O)cc3)cc2c1 (stereo not drawn) [N-[6-[[(2-Acetylamino)-1-oxopropyl]amino]-1,2-dihydro-2-oxo-3-quinolinylcarbonyl]amoxicillin] | 1.6 | 1.6 | 3.1 | 12.5 | 6.3 | 1.6 | 12.5 | 1.6 | 6.3 | 1.6 µg/mL |
| CC(=O)NC(C)C(=O)Nc1ccc2c(=O)c(C(=O)NC(C(=O)NC3C(=O)N4C3SC(C)(C)C4C(=O)O)c3ccc(O)cc3)c[nH]c2c1 (stereo not drawn) [N-[7-[[2-(Acetylamino)-1-oxopropyl]amino]-1,4-dihydro-4-oxo-3-quinolinylcarbonyl]amoxicillin] | 0.2 | 1.6 | 0.8 | 6.3 | 3.1 | 0.8 | 6.3 | 1.6 | 3.1 | .6 µg/mL |
| CC(=O)N1CC(O)CC1C(=O)Nc1ccc2c(=O)c(C(=O)NC(C(=O)NC3C(=O)N4C3SC(C)(C)C4C(=O)O)c3ccc(O)cc3)c[nH]c2c1 (stereo not drawn) [N-[7-[[(1-Acetyl-4-hydroxy-2-pyrrolidinyl)carbonyl]-amino]-1,4-dihydro-4-oxo-3-quinolinecarbonyl]amoxicillin] | 3.1 | 3.1 | 0.8 | 6.3 | 12.5 | 1.6 | 12.5 | 3.1 | 6.3 | 3.1 µg/mL |
| N-[1,4-Dihydro-4-oxo-7-[[(5-oxo-2-pyrrolidinyl)carbonyl]-amino]-3-quinolinylcarbonyl]amoxicillin | 0.4 | 0.4 | 0.8 | 1.6 | 3.1 | 0.8 | 3.1 | 0.8 | 3.1 | 3.1 µg/mL |
| N-[(-[[2-(Acetylamino)-1-oxopropl]amino]-1,4-dihydro-4-oxo-3-quinolinylcarbonyl]amoxicillin | 3.1 | 3.1 | 3.1 | 12.5 | 12.5 | 1.6 | 12.5 | 0.8 | 12.5 | .1 µg/mL |
